Reference: publication PMC5691318 (Journal of the American Chemical Society, 2017)
Where a SMILES comes first, the peptide text is derived from it. [ ]: non-standard residue; d: D form. pS = N[C@@H](COP(=O)(O)O)C(=O)O

Key:
[1] = system: 14-3-3 with the protein kinase C-Raf; settings: ref [48]; cited from earlier work
[2] = system: 14-3-3 with the chloride channel CFTR; settings: ref [18]; cited from earlier work
[3] = system: TASK3 plasma membrane localization; settings: ref [47]; cited from earlier work
[4] = system: 14-3-3 proteins with the potassium channel TASK3; settings: ref [47]; cited from earlier work
[5] = system: 14-3-3/Exoenzyme S peptide; settings: fluorescence polarization, labeled peptide; ref [31]; cited from earlier work
[6] = system: 14-3-3/C-Raf peptide; settings: fluorescence polarization, labeled peptide; ref [31]; cited from earlier work
[7] = Potentiometric pKa determination; format: physicochemical; settings: determined potentiometrically
[8] = system: 14-3-3ζ/Cdc25CpS216 interaction; assay: ITC: reinforcement of the 14-3-3ζ/Cdc25CpS216 interaction by CLR01; format: binding; settings: 250 μM or 1.5 mM CLR01 vs no CLR01
[9] = target: T1, 14-3-3ζ (Homo sapiens, UniProt P63104); assay: Isothermal titration calorimetry; format: binding
T1 sequence (P63104 1-230): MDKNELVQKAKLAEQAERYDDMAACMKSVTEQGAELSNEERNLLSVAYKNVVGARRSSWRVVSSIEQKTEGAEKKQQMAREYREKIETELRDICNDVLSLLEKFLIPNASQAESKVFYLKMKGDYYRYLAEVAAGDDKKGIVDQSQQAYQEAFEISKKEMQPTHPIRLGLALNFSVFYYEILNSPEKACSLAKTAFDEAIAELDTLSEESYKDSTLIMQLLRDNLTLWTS
T1 sequence (P30307 207-244 partner): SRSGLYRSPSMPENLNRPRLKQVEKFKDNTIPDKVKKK

[10] = system: Arf1/Arf1GAP; settings: ref [48],[49]; cited from earlier work
[11] = target: T2, Cdc25CpS216 peptide (Homo sapiens, not fully specified; phosphoSer216, 250 μM CLR01); assay: ITC
T2 chain: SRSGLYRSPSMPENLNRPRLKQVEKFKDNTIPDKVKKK

[12] = target: T3, Cdc25CpS216 peptide (Homo sapiens, not fully specified; phosphoSer216); assay: ITC
T3 chain: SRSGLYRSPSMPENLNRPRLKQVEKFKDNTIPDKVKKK

[13] = target: T4, Cdc25CpS216 peptide (Homo sapiens, not fully specified; phosphoSer216, 1.5 mM CLR01); assay: ITC
T4 chain: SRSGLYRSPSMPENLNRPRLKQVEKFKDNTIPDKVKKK

Molecule: COCC1O[C@H](O[C@@H]2C3=C(C(C)C)CC[C@]3(C)/C=C3\[C@@H](CC[C@]3(O)COC)[C@@H](C)[C@H]2O)C(O)C2OC3O[C@]12O[C@@]3(C)C1CO1 (stereo partly shown) [cotylenin A]
- stabilization factor of 14-3-3 binding with C-Raf [1]: 17

Molecule: C=CC(C)(C)OC[C@H]1O[C@H](O[C@@H]2C3=C([C@H](C)COC(C)=O)C[C@H](O)[C@]3(C)/C=C3/[C@@H](COC)CC[C@H]3[C@@H](C)[C@H]2O)[C@H](O)[C@@H](OC(C)=O)[C@@H]1O [fusicoccin]
- stabilization factor of 14-3-3 binding with CFTR [2]: 9

Molecule: COCC1CCC2C1=CC1(C)C(=C(C(C)C)C3CCOC31)C(OC1OC3COC(C)(C)OC3C(O)C1O)C(O)C2C (stereo not shown) [FC-THF]
- increase in plasma membrane localization [3]: 50%
- stabilization of the interaction of 14-3-3 proteins with TASK3 [4]: around 19 fold

Molecule: O=P(O)(O)Oc1c2c(c(OP(=O)(O)O)c3c1C1CC3c3cc4c(cc31)C1CC4c3ccccc31)C1CC2c2cc3c(cc21)C1CC3c2ccccc21 [CLR01]
- effect on binding of Exoenzyme S-derived peptide to 14-3-3 [5]: inhibited
- effect on binding of C-Raf-derived peptide to 14-3-3 [6]: inhibited
- second pKa value of the hydrogen phosphate group [7]: 7.4
- reinforcement of the 14-3-3ζ/Cdc25CpS216 interaction [8]: 2–3 fold

Molecule: CC[C@H](C)[C@H](NC(=O)[C@@H](NC(=O)[C@H](CC(N)=O)NC(=O)[C@H](CC(=O)O)NC(=O)[C@H](CCCCN)NC(=O)[C@H](Cc1ccccc1)NC(=O)[C@H](CCCCN)NC(=O)[C@H](CCC(=O)O)NC(=O)[C@@H](NC(=O)[C@H](CCC(N)=O)NC(=O)[C@H](CCCCN)NC(=O)[C@H](CC(C)C)NC(=O)[C@H](CCCNC(=N)N)NC(=O)[C@@H]1CCCN1C(=O)[C@H](CCCNC(=N)N)NC(=O)[C@H](CC(N)=O)NC(=O)[C@H](CC(C)C)NC(=O)[C@H](CC(N)=O)NC(=O)[C@H](CCC(=O)O)NC(=O)[C@@H]1CCCN1C(=O)[C@H](CCSC)NC(=O)[C@H](COP(=O)(O)O)NC(=O)[C@@H]1CCCN1C(=O)[C@H](CO)NC(=O)[C@H](CCCNC(=N)N)NC(=O)[C@H](Cc1ccc(O)cc1)NC(=O)[C@H](CC(C)C)NC(=O)CNC(=O)[C@H](CO)NC(=O)[C@H](CCCNC(=N)N)NC(=O)[C@@H](N)CO)C(C)C)[C@@H](C)O)C(=O)N1CCC[C@H]1C(=O)N[C@@H](CC(=O)O)C(=O)N[C@@H](CCCCN)C(=O)N[C@H](C(=O)N[C@@H](CCCCN)C(=O)N[C@@H](CCCCN)C(=O)N[C@@H](CCCCN)C(=O)O)C(C)C [Cdc25CpS216] (H-SRSGLYRSP[pS]MPENLNRPRLKQVEKFKDNTIPDKVKKK-OH)
- Kd [9]: 5.16 µM

Molecule: C[C@H]1CCC/C=C/[C@@H]2C[C@H](O)C[C@H]2[C@H](O)/C=C/C(=O)O1 [brefeldin A]
- stabilization factor of target protein complex Arf1/Arf1GAP [10]: 10

B1: 14-3-3ζ (protein)
chain: MDKNELVQKAKLAEQAERYDDMAACMKSVTEQGAELSNEERNLLSVAYKNVVGARRSSWRVVSSIEQKTEGAEKKQQMAREYREKIETELRDICNDVLSLLEKFLIPNASQAESKVFYLKMKGDYYRYLAEVAAGDDKKGIVDQSQQAYQEAFEISKKEMQPTHPIRLGLALNFSVFYYEILNSPEKACSLAKTAFDEAIAELDTLSEESYKDSTLIMQLLRDNLTLWTSDTQGDEAEAGEGGEN
- Kd [11]: 2.75 µM
- Kd [12]: 5.16 µM
- Kd [13]: 2.06 µM
